The assay relates to human estrogen receptor α (hERα) or β receptor (hERβ). Nature of the assay: in vitro transactivation bioassay (estrogenic activity) in recombinant CHO cells co-transfected with hER, rat oxytocin promoter and luciferase reporter. Format: cell-based. Particulars: for Potency Transactivation (% relative to 17β-estradiol): agonist potency ratio vs estradiol, CHO cells, luciferase reporter, receptor subtype not given; for β/α ratio: ratio of hERβ to hERα. As for the experimental part: The estrogenic and antiestrogenic activity of compounds is determined in an in vitro bioassay with recombinant Chinese hamster ovary (CHO) cells stably co-transfected with the human estrogen receptor α (hERα) or β receptor (hERβ), the rat oxytocin promoter (RO) and the luciferase reporter gene (LUC). The estrogenic activity (potency ratio) of a test compound to stimulate the transactivation of the enzyme luciferase mediated via the estrogen receptors hERα or hERβ is compared with the standard estrogen estradiol. The antiestrogenic activity (potency ratio) of a test compound to inhibit the transactivation of the enzyme luciferase mediated via the estrogen receptors hERα or hERβ by the estrogen estradiol is compared with the standard ICI 164.384 (=(7α, 17β)-N-butyl-3,17-dihydroxy-N-methylestra-1,3,5(10)-triene-7-undecanamide).
(Reporter assays use an easily measured gene product as a stand-in for the process of interest.)

For `CCCC(=O)Oc1ccc(C2Oc3ccc(OC(=O)CCC)cc3C(Cc3ccccc3)C2CC)cc1` (racemic) [Compound 6a], the “Potency Transactivation (% relative to 17β-estradiol)” value is listed as “+++ (+++ >10%)” and the β/α ratio entry is reported as “+++ (+++ >30)”.
The like results for `CCC1C(Cc2ccccc2)c2cc(O)ccc2OC1c1ccc(O)cc1` (stereo not drawn) [Compound 5b] were, in that order, “+++ (+++ >10%)” and “+++ (+++ >30)”.
As to `CCC1C(Cc2ccccc2)c2cc(OC(=O)C(C)(C)C)ccc2OC1c1ccc(OC(=O)C(C)(C)C)cc1` (racemic) [Compound 6b], the “Potency Transactivation (% relative to 17β-estradiol)” value is reported as “+ (+ between 0.1-4%)” and the β/α ratio result was “+ (+ between 3.5-10)”.

Values taken from patent US7846966B2, “Chroman derivatives as estrogenic compounds” (N.V. Organon, priority 2000, dated 2010).
